Assay results published in patent US11034710B2, “CDK9 inhibitors and polymorphs thereof for use as agents for treatment of cancer” (SUMITOMO DAINIPPON PHARMA ONCOLOGY, INC., priority 2018, dated 2021).

Tests used:
[1] = Four-week stability of Form B obtained using various Step 4.1 reaction conditions (40° C./75% RH, HPLC); assay type: physicochemical; details: 40° C. ± 2° C., 75 ± 5% RH, sealed vial
From the text: The results of the stability study appear in Table 21.

[2] = Dynamic vapor sorption (DVS) test of amorphous Form A; assay type: physicochemical; details: 80% relative humidity
[3] = Stability study of amorphous Form A (decomposition to compound A-2); assay type: physicochemical
[4] = Phase I study: plasma pharmacokinetics of compound of structure (I) and alvocidib; assay type: in vivo, human
From the text: Patients with advanced metastatic or progressive solid tumors who were refractory to, or intolerant of, established therapy known to provide clinical benefit for their condition were enrolled. Cohorts of 3-6 patients each received escalating doses of compound of structure (I) using a modified Fibonacci dose escalation approach. Once the optimal dose has been established, additional patients may be enrolled to confirm safety and to explore efficacy.
This is an ongoing Phase 1, open-label, dose-escalation, safety, PK and PD study. The proposed starting dose and schedule for oral compound of structure (I) was a 1-mg flat dose once daily (QD) for 14 days followed by a 7-day drug-free recovery period (each cycle=21 days). In the absence of dose-limiting toxicities (DLTs) in the first cohort of at least 3 patients, the dose was increased using a modified Fibonacci dose escalation scheme, and BID dosing commenced according to the dose escalation schedule described in Table 28. The first patient in cohort 6 has been enrolled at 8 mg compound of structure (I) BID. The baseline demographics of the first 14 patients enrolled in the study are described in Table 26.
Plasma PK parameters of compound of structure (I) and alvocidib were evaluated in Cohorts 1-5 at specific timepoints during the study. Blood was collected from patients in Cohorts 1-5 according to the pharmacokinetic sampling schedule described in Table 29.
PK parameters were estimated using standard noncompartmental methods. Actual sample collection times were used rather than scheduled collection times. Plasma concentrations below the limit of quantification were treated as 0. Imbedded missing plasma concentrations (e.g., missing values between two observed values) were estimated using linear […]. This is consistent with using the trapezoidal rule to calculate AUC. Other missing plasma concentrations were excluded from calculations to estimate PK parameters.

[5] = test system: patients with advanced solid tumors; assay: Phase I study: safety, dose-limiting toxicities and treatment-emergent adverse events; assay type: in vivo, human
From the text: Patients with advanced metastatic or progressive solid tumors who were refractory to, or intolerant of, established therapy known to provide clinical benefit for their condition were enrolled. Cohorts of 3-6 patients each received escalating doses of compound of structure (I) using a modified Fibonacci dose escalation approach. Once the optimal dose has been established, additional patients may be enrolled to confirm safety and to explore efficacy. This is an ongoing Phase 1, open-label, dose-escalation, safety, PK and PD study. The proposed starting dose and schedule for oral compound of structure (I) was a 1-mg flat dose once daily (QD) for 14 days followed by a 7-day drug-free recovery period (each cycle=21 days). In the absence of dose-limiting toxicities (DLTs) in the first cohort of at least 3 patients, the dose was increased using a modified Fibonacci dose escalation scheme, and BID dosing commenced according to the dose escalation schedule described in Table 28. The first patient in cohort 6 has been enrolled at 8 mg compound of structure (I) BID. The baseline demographics of the first 14 patients enrolled in the study are described in Table 26. […] DLT was defined as any one of the following events observed in cycle 1, regardless of investigator attribution, unless there was a clear alternative explanation: • 1. Grade 3 or greater febrile neutropenia • 2. Grade 4 neutropenia for ≥7 consecutive days • 3. Grade 4 thrombocytopenia or Grade 3 thrombocytopenia with clinically significant bleeding or that requires a platelet transfusion • 4. Grade 3 or 4 nonhematologic AEs will be considered dose limiting, regardless of duration aside from the specific parameters described herein • 5. Grade 4 nausea, vomiting, or diarrhea, regardless of duration • 6. […] Any Grade ≥3 elevations in creatinine • 10. Any Grade 5 toxicity

[6] = patients (% of N = 14), oral dosing, advanced solid tumors

CN1CCC(c2c(OP(=O)(O)O)cc(O)c3c(=O)cc(-c4ccccc4Cl)oc23)C(O)C1.Cl (stereo not shown) [Form A-11]
A-2 ([1]; 7 days ± 1 day): 6.6%
HPLC Purity of A-5 ([1]; 7 days ± 1 day): 91.3%
A-2 ([1]; 14 days ± 1 day): 13.7%
HPLC Purity of A-5 ([1]; 14 days ± 1 day): 84.12%
A-2 ([1]; 21 days ± 1 day): 19.0%
HPLC Purity of A-5 ([1]; 21 days ± 1 day): 78.5%
A-2 ([1]; 28 days ± 1 day): 22.2%
HPLC Purity of A-5 ([1]; 28 days ± 1 day): 75.0%
A-2 ([1]; Initial): 1.02%
HPLC Purity of A-5 ([1]; Initial): 97.0%

CN1CC[C@H](c2c(OP(=O)(O)O)cc(O)c3c(=O)cc(-c4ccccc4Cl)oc23)[C@H](O)C1 [Form A]
A-2 ([1]; 7 days ± 1 day): 0.88%
HPLC Purity of A-5 ([1]; 7 days ± 1 day): 98.6%
A-2 ([1]; 14 days ± 1 day): 2.2%
HPLC Purity of A-5 ([1]; 14 days ± 1 day): 97.5%
A-2 ([1]; Initial): 0.44%
HPLC Purity of A-5 ([1]; Initial): 99.2%
weight of water taken in (DVS), hygroscopicity [2]: 12.5%
decomposition ([3]; 40° C. and 75% relative humidity for one week): accelerated decomposition
degradation to compound A-2 ([3]; after 10 days at room temperature): 6.85%
degradant trends ([3]; stored at −20° C.): no degradant trends

CN1CC[C@H](c2c(O)cc(O)c3c(=O)cc(-c4ccccc4Cl)oc23)[C@H](O)C1 [alvocidib, 2-(2-chlorophenyl)-5,7-dihydroxy-8-[(3S,4R)-3-hydroxy-1-methylpiperidin-4-yl]chromen-4-one]
Tmax ([4]; Cohort 5, 6 mg BID oral Formulation No. 401-01, Cycle 1 Day 1, Mean of subjects 501-503): 60 min
Tmax ([4]; Cohort 5, 6 mg BID oral Formulation No. 401-01, Cycle 1 Day 1, Subject 501): 30 min
Tmax ([4]; Cohort 5, 6 mg BID oral Formulation No. 401-01, Cycle 1 Day 1, Subject 502): 120 min
Tmax ([4]; Cohort 5, 6 mg BID oral Formulation No. 401-01, Cycle 1 Day 1, Subject 503): 30 min
Tmax ([4]; Cohort 5, 6 mg BID oral Formulation No. 401-01, Cycle 1 Day 14, Mean of subjects 501-503): 60 min
Tmax ([4]; Cohort 5, 6 mg BID oral Formulation No. 401-01, Cycle 1 Day 14, Subject 501): 30 min
Tmax ([4]; Cohort 5, 6 mg BID oral Formulation No. 401-01, Cycle 1 Day 14, Subject 502): 120 min
Tmax ([4]; Cohort 5, 6 mg BID oral Formulation No. 401-01, Cycle 1 Day 14, Subject 503): 30 min

CN1CC[C@H](c2c(OP(=O)(O)O)cc(O)c3c(=O)cc(-c4ccccc4Cl)oc23)[C@H](O)C1 [compound of structure (I), 2-(2-chlorophenyl)-5-hydroxy-8-((3S,4R)-3-hydroxy-1-methylpiperidin-4-yl)-4-oxo-4H-chromen-7-yl dihydrogen phosphate]
toxicity observed to date ([5]; oral, Cohorts to date, patients with advanced solid tumors): no unexplained toxicity, and no evidence of dose-limiting diarrhea or neutropenia
Treatment-emergent adverse events grade ≥ 3: Anemia, Grade 3 [5, 6]: 1 (7%)
Treatment-emergent adverse events grade ≥ 3: Chest Pain, Grade 3 [5, 6]: 1 (7%)
Treatment-emergent adverse events grade ≥ 3: Haematuria, Grade 3 [5, 6]: 1 (7%)
Treatment-emergent adverse events grade ≥ 3: Hypotension, Grade 3 [5, 6]: 1 (7%)
Treatment-emergent adverse events grade ≥ 3: Hypoxia, Grade 3 [5, 6]: 1 (7%)
Treatment-emergent adverse events grade ≥ 3: Malignant Pleural Effusion, Grade 3 [5, 6]: 1 (7%)
Treatment-emergent adverse events grade ≥ 3: Pain, Grade 3 [5, 6]: 1 (7%)
Treatment-emergent adverse events grade ≥ 3: Swelling, Grade 3 [5, 6]: 1 (7%)
